What all share (format): cell-based
One experiment concerns AGS cells. As to the kind of experiment: 3D cell proliferation assay (CellTiter-Glo 3D), AGS. Conditions: 5 days, read-out: 3D Proliferation Inhibition AGS_IC50. The protocol:
(§1) Using a nanoliter liquid handling system (LABCYTE, P-0200), the diluted test compounds were added to a 384-well low-adsorption cell culture plate. Cells were seeded into the wells, and the plate was placed in an incubator at 37° C. with 5% CO2. After co-incubating the compounds and cells for 5 days, CellTiter-Glo® 3D reagent was added. Luminescence values were measured using an EnVision Multilabel Plate Reader (luminescence is proportional to the ATP content in the system, and ATP content directly reflects the number of viable cells). Finally, the IC50 values (half-maximal inhibitory concentrations) of the compounds were determined using non-linear fitting equations in XLFit software with the following parameters: […]
(§2) X: Logarithm of compound concentration • Y: Inhibition rate (%)
(§3) [formula] • Negative control: DMSO • Positive control: Medium only
(In general: Cellular ATP, detected with luciferase, serves as a proxy for viable cell number.)

Another experiment relates to AsPC-1 cells. As to the kind of experiment: 3D cell proliferation assay (CellTiter-Glo 3D), AsPC-1. Particulars: 5 days, read-out: 3D Proliferation Inhibition AsPC-1_IC50. The protocol:
as §1, §2, §3

Another experiment deals with pERK in AGS cells. As to the kind of experiment: ERK phosphorylation cell assay, AGS. Conditions: 3 hours compound incubation, read-out: pERK AGS_IC50. The protocol: (§4) • Day 1: AGS cells were seeded into a 384-well cell culture plate and incubated overnight at 37° C. with 5% CO2 in a cell culture incubator. • Day 2: Compounds were added to the plate using an Echo550 liquid handler, followed by incubation at 37° C. with 5% CO2 in a cell culture incubator for 3 hours. Subsequently, the cells were fixed with paraformaldehyde, permeabilized with methanol, and blocked with blocking buffer. A primary antibody mixture (rabbit anti-pERK, mouse anti-GAPDH) was added, and the plate was incubated overnight at 4° C. • Day 3: The primary antibodies were removed, and a secondary antibody mixture (goat anti-rabbit 800CW, goat anti-mouse 680RD) was added. The plate was incubated at room temperature in the dark. After three washes with PBST, the plate was inverted and centrifuged for 1 minute. Fluorescence signal values were read using an Odyssey CLx imaging system.
(§5) [formula] • Negative control: DMSO • Positive control: 10 μM Reference • Fitted using XLFit 5.0 with the following parameters:
(§6) [formula] • X: Log of compound concentration • Y: Mean relative expression levels of p-ERK across replicates

Another experiment concerns pERK in AsPC-1 cells. Kind of experiment: ERK phosphorylation cell assay, AsPC-1. Conditions: read-out: pERK AsPC-1_IC50. Here is the method:
[Worded in the source for another cell line; this cell line is reported under the same test.] as §4, §5, §6

Where [1] appears, read: Homo sapiens, ASPC1, AsPC-1 cells.

Like-named read-outs stand apart in the source and are kept apart here.

Regarding `C=C1CN2C[C@H](F)C[C@]2(COc2nc(N3CCC[C@@](C)(O)C3)c3cc4c(c(F)c3n2)-c2cc(O)cc3ccc(F)c(c23)CCOCCN4C)C1` [Example 49], the IC50 in the experiment with AGS cells (Homo sapiens, AGS, 120 h) was 83 nM; in the experiment on AsPC-1 cells (Homo sapiens, ASPC1, 120 h), 112 nM; in the experiment with pERK in AGS cells (Homo sapiens, AGS, 3 h) it was 20 nM; with pERK in AsPC-1 cells (setting [1]) it was 17 nM.

Regarding `C=C1CN2CCCC2(COc2nc(N3CCC[C@@](C)(O)C3)c3cc4c(c(F)c3n2)-c2cc(O)cc3ccc(F)c(c23)CCCCCN4C)C1` (single isomer, unassigned) [Example 22A], the IC50 with AGS cells was 90 nM; in the experiment with AsPC-1 cells, 166 nM; in the experiment with pERK in AGS cells, 26 nM; in the experiment with pERK in AsPC-1 cells (AsPC-1 cells) it was 85 nM.

On to `C[C@@]1(O)CCCN(c2nc(OCC34CCCN3C[C@]3(C4)CC3(F)F)nc3c(F)c4c(cc23)NCCCCCc2c(F)ccc3cc(O)cc-4c23)C1` (single isomer, unassigned) [Example 24A], for which the IC50 in the experiment on AGS cells (Homo sapiens, AGS, 120 h) worked out at 508 nM; in the experiment with AsPC-1 cells (Homo sapiens, ASPC1, 120 h) it was 847 nM; in the experiment with pERK in AGS cells it was 91 nM; in the experiment with pERK in AsPC-1 cells (AsPC-1 cells), 352 nM.

For `CN1CC(F)(F)C[C@H]1COc1nc(N2CCC[C@@](C)(O)C2)c2cc3c(c(F)c2n1)-c1cc(O)cc2ccc(F)c(c12)CCCCCN3` [Example 34, 13-(((S)-4,4-difluoro-1-methylpyrrolidin-2-yl)methoxy)-3,15-difluoro-11-((R)-3-hydroxy-3-methylpiperidin-1-yl)-4,5,6,7,8,9-hexahydro-naphtho[1′,8′:4,5,6][1]azacycloundecino[2,3-g]quinazoline-17-ol], the IC50 was 3660 nM in the experiment with AGS cells (Homo sapiens, AGS, 120 h); 3350 nM in the experiment with AsPC-1 cells (Homo sapiens, ASPC1, 120 h); 8960 nM with pERK in AGS cells (Homo sapiens, AGS, 3 h); over 10000 nM in the experiment on pERK in AsPC-1 cells (setting [1]).

Regarding `O=C1CCCCCc2c(F)ccc3cc(O)cc(c23)-c2c(cc3c(N4CC5CCC(C4)N5)nc(OC[C@@]45CCCN4C[C@H](F)C5)nc3c2F)N1` [Example 9, 12-((1R,5S)-3,8-diazabicyclo[3.2.1]octan-3-yl)-3,16-difluoro-14-(((2R,7aS)-2-fluorotetrahydro-1H-pyrazin-7a(5H)-yl)methoxy)-18-hydroxy-5,6,7,8-tetrahydro-4H-naphtho[1′,8′:4,5,6][1]azacyclododecino[2,3-g]quinazolin-9(10H)-one], the IC50 with AGS cells (Homo sapiens, AGS, 120 h) was 51 nM; in the experiment with AsPC-1 cells, 613 nM; with pERK in AGS cells, 18 nM; in the experiment with pERK in AsPC-1 cells (AsPC-1 cells) it was 118 nM.

With `CN1CCCCCc2c(F)ccc3cc(O)cc(c23)-c2c1cc1c(N3CCC[C@@](C)(O)C3)nc(OC[C@@]34CCCN3C[C@H](F)C4)nc1c2F` (single isomer, unassigned) [Example 6B], the results for the IC50 in the experiment on AGS cells, in the experiment with AsPC-1 cells and in the experiment with pERK in AGS cells were 1040 nM, 1370 nM and 450 nM, respectively.

In the case of `C[C@@]1(O)CCCN(c2nc(OCC34CCCN3CCC4)nc3c(F)c4c(cc23)NCCCCCc2c(F)ccc3cccc-4c23)C1` [Example 7, (R)-1-(3,15-Difluoro-13-((tetrahydro-1H-pyrazin-7a(5H)-yl)methoxy)-4,5,6,7,8,9-hexahydronaphtho[1′,8′:4,5,6]azecino[2,3-g]quinazolin-11-yl)-3-methylpiperidin-3-ol], the IC50 in the experiment with AGS cells (Homo sapiens, AGS, 120 h) stood at 2290 nM; with AsPC-1 cells (Homo sapiens, ASPC1, 120 h) it was 2860 nM; in the experiment on pERK in AGS cells (Homo sapiens, AGS, 3 h), 3470 nM.

Turning to `C=C1CN2CCCC2(COc2nc(N3CCC[C@@](C)(O)C3)c3cc4c(c(F)c3n2)-c2cc(O)cc3ccc(F)c(c23)CCCCCN4C(C)=O)C1` (stereo partly drawn) [Example 44, 1-(3,15-Difluoro-17-hydroxy-11-((R)-3-hydroxy-3-methylpiperidin-1-yl)-13-((2-methylene-tetrahydro-1H-pyrazin-7a(5H)-yl)methoxy)-5,6,7,8-tetrahydronaphtho[1′,8′:4,5,6][1]azacycloundecino[2,3-g]quinazolin-9(4H)-yl)ethan-1-one], the IC50 in the experiment with AGS cells (Homo sapiens, 120 h) came to 1860 nM; in the experiment with AsPC-1 cells (Homo sapiens, ASPC1, 120 h) it was 3900 nM; with pERK in AGS cells (Homo sapiens), 490 nM.

Regarding `C=C1CN2CCCC2(COc2nc(N3CCC[C@@](C)(O)C3)c3cc4c(c(F)c3n2)-c2cc(O)cc3ccc(F)c(c23)CCCCCN4S(C)(=O)=O)C1` (stereo partly drawn) [Example 45, 3,15-difluoro-11-((R)-3-hydroxy-3-methylpiperidin-1-yl)-13-((2-methylenetetrahydro-1H-pyrazin-7a(5H)-yl)methoxy)-9-(methylsulfonyl)-4,5,6,7,8,9-hexahydronaphtho[1′,8′:4,5,6][1]azacycloundecano[2,3-g]quinazolin-17-ol], the IC50 with AGS cells (Homo sapiens, AGS, 120 h) was 3210 nM; with AsPC-1 cells (Homo sapiens, ASPC1, 120 h), 4090 nM; in the experiment with pERK in AGS cells (Homo sapiens, AGS, 3 h), 3390 nM.

Turning to `O=C1CCCCc2c(F)ccc3cc(O)cc(c23)-c2c(cc3c(N4CC5CCC(C4)N5)nc(OC[C@@]45CCCN4C[C@H](F)C5)nc3c2F)N1` [Example 4], the IC50 is 848 nM in the experiment on AGS cells (Homo sapiens, AGS, 120 h); 4870 nM in the experiment on AsPC-1 cells (Homo sapiens, ASPC1, 120 h); 331 nM with pERK in AGS cells (Homo sapiens, AGS, 3 h).

For the molecule `C=C1CN2CCC[C@@]2(COc2nc(N3CCC[C@@](C)(O)C3)c3cc4c(c(F)c3n2)-c2cccc3ccc(F)c(c23)CCOCCN4)C1` [Example 53, (R)-1-(3,15-difluoro-13-(((S)-2-methylenetetrahydro-1H-pyrazin-7a(5H)-yl)methoxy)-4,5,8,9-tetrahydro-7H-naphtho[1′,8′:7,8,9][1]oxa[4]azacycloundeca[5,6-g]quinazoline-11-yl)-3-methylpiperidin-3-ol], the IC50 in the experiment with pERK in AGS cells (Homo sapiens, AGS, 3 h) is 2180 nM; in the experiment on pERK in AsPC-1 cells (setting [1]), 3300 nM.

For `O=C1CCCCCCCCc2c(F)ccc3cc(O)cc(c23)-c2c(cc3c(N4CC5CCC(C4)N5)nc(OCC45CCCN4CC(F)C5)nc3c2F)N1` [Example 10, 15-((1R,5S)-3,8-diazabicyclo[3.2.1]octan-3-yl)-3,19-difluoro-17-(((2R,7aS)-2-fluorotetrahydro-1H-pyrazin-7a(5H)-yl)methoxy)-21-hydroxy-4,5,6,7,8,9,10,11-octahydronaphtho[1′,8′:4,5,6][1]azacyclopentadecano[2,3-g]quinazolin-12(13H)-one], the IC50 in the experiment with pERK in AGS cells and in the experiment on pERK in AsPC-1 cells (AsPC-1 cells) was over 10000 nM each time.

`C[C@@]1(O)CCCN(c2nc(OCC34CCCN3C[C@]3(C4)CC3(F)F)nc3c(F)c4c(cc23)NCCCCCc2c(F)ccc3cc(O)cc-4c23)C1` (single isomer, unassigned) [Example 24B]: the IC50 in the experiment on pERK in AGS cells turned out to be 1920 nM; in the experiment with pERK in AsPC-1 cells (AsPC-1 cells) it was 7180 nM.

For `C=C1CN2CC(=C)CC2(COc2nc(N3CCC[C@@](C)(O)C3)c3cc4c(c(F)c3n2)-c2cc(O)cc3ccc(F)c(c23)CCCCCN4)C1` [Example 31], the IC50 stood at 136 nM with pERK in AGS cells (Homo sapiens, AGS, 3 h) and 225 nM in the experiment on pERK in AsPC-1 cells (setting [1]).

“13-((2,2-difluoro-6-methylenetetrahydro-1H-pyrazin-7a(5H)-yl)methoxy)-3,15-difluoro-11-((R)-3-hydroxy-3-methylpiperidin-1-yl)-4,5,6,7,8,9-hexahydronaphtho[1′,8′:4,5,6][1]azacycloundecano[2,3-g]quinazolin-17-ol [Example 38]”: the IC50 in the experiment with pERK in AGS cells and with pERK in AsPC-1 cells (AsPC-1 cells) was over 10000 nM each time.

In the case of `C=C1CN2CCC[C@@]2(COc2nc(N3CCC[C@@](C)(O)C3)c3cc4c(c(F)c3n2)-c2cc(OC(=O)CCCCCCCCC)cc3ccc(F)c(c23)CCOCCN4C)C1` [Example 51, 3,15-difluoro-11-((R)-3-hydroxy-3-methylpiperidin-1-yl)-9-methyl-13-(((S)-2-methylenetetrahydro-1H-pyrazin-7a(5H)-yl)methoxy)-4,5,8,9-tetrahydro-7H-naphtho[1′,8′:7,8,9111]oxa[4]azacycloundeca[5,6-g]quinazoline-17-yl decanoate], the IC50 in the experiment with pERK in AGS cells (Homo sapiens, AGS, 3 h) was 2.4 nM; with pERK in AsPC-1 cells (setting [1]), 6.1 nM.

For the molecule `CN1CCCCCc2c(F)ccc3cc(O)cc(c23)-c2c1cc1c(N3CCC[C@@](C)(O)C3)nc(OC[C@@]34CCCN3C[C@H](F)C4)nc1c2F` (single isomer, unassigned) [Example 6A], the IC50 with AGS cells came to 127 nM; in the experiment with AsPC-1 cells it was 202 nM; in the experiment on pERK in AGS cells it was 30 nM.

In the case of `C=C1CN2CCCC2(COc2nc(N3CCC[C@@](C)(O)C3)c3cc4c(c(F)c3n2)-c2cc(O)cc3ccc(F)c(c23)CCCCCN4)C1` (stereo partly drawn) [Example 25], the IC50 in the experiment with AGS cells (Homo sapiens, AGS, 120 h) came to 112 nM; with AsPC-1 cells (Homo sapiens, ASPC1, 120 h) it was 336 nM.

As for `C[C@@]1(O)CCCN(c2nc(OC[C@@]34CCCN3C[C@H](F)C4)nc3c(F)c4c(cc23)NCCOCCc2c(F)ccc3cccc-4c23)C1` (single isomer, unassigned) [Example 52A], the IC50 was 2000 nM with pERK in AGS cells and 3100 nM in the experiment with pERK in AsPC-1 cells (AsPC-1 cells).

The values are drawn from US20260049089A1, “KRAS INHIBITOR COMPOUND” (SHANGHAI APEIRON THERAPEUTICS COMPANY LIMITED, priority 2022, published 2026).
